Measurements reported in patent US6924298B2, “2-(3,5-Disubstituted-4-pyridyl)-4-(thienyl, thiazolyl or arylphenyl)-1,3-oxazoline compounds” (Dow AgroSciences LLC, priority 2000, dated 2005).
Like-named read-outs stand apart in the source and are kept apart here.

Tests used:
Type in all cases: in vivo
[1] = system: sweetpotato whitefly (Bemisia tabacia); assay: Insecticidal test for sweetpotato whitefly, spray on cotton plants; settings: 312 h, 200 ppm spray, large nymphs counted after 13 days, read-out: WF: activity at 200 ppm against whitefly (% Control rating)
Protocol: Insecticidal Test for Sweetpotato Whitefly (Bemisia tabacia)
Four mg of each test compound was dissolved by adding 4 mL of a 90:10 acetone:ethanol solvent mixture to the vial containing the sample compound. This solution was added to 16 mL of water containing 0.05% Tween 20 surfactant to produce 20 mL of a 200 ppm spray solution.
Five-week-old cotton plants reared in a greenhouse were stripped of all foliage except for the two uppermost true leaves that were greater than 5 cm in diameter.
These plants were then placed into a laboratory colony of whiteflies for two days for oviposition by the colony females. All whiteflies were then removed from the test plants with pressurized air. The spray solution was then applied to the test plants with a hand-held syringe fitted with hollow cone nozzle. One mL of spray solution was applied to each leaf top and bottom for a total of 4 mL per plant. Four replications of each test compound utilized a total of 16 mL spray solution. Plants were air dried and then placed in a holding chamber (28° C. and 60% RH) for 13 days. Compound efficacy was evaluated by counting, under an illuminated magnifying glass, the number of large nymphs (3rd-4th instar) per leaf.
Percent control based on reduction of large nymphs of a test compound compared to solution-only (no test compound) sprayed plants is reported in Tables 1-4.

[2] = system: cotton aphid (Aphis gossypii); assay: Insecticidal test for cotton aphid, spray on infested squash cotyledons; settings: Aphis gossypii, 72 h, read-out: CA: activity at 50 ppm against cotton aphid (% Control rating)
Protocol: Insecticidal Test for Cotton Aphid (Aphis gossypii)
To prepare spray solutions, 1 mg of each test compound was dissolved into 1 mL of a 90:10 acetone:ethanol solvent. This 1 mL of chemical solution was added to 19 mL of water containing 0.05% Tween 20 surfactant to produce a 50 ppm spray solution.
Squash cotyledons were infested with cotton aphid (all life stages)16-20 hours prior to application of spray solution. The solution was sprayed on both sides of each infested squash cotyledon (0.5 mL×2 each side) with a sweeping action until runoff. The plants were allowed to air dry and held for 3 days in a controlled room at 26° C. and 40% RH after which time the test was graded. Grading was by actual count using a dissecting microscope and comparison of test counts to the untreated check. Results are given in Tables 1-4 as percent control based on population reduction versus the untreated.

[3] = system: two-spotted spider mite (Tetranychus urticae); assay: Insecticidal test for two-spotted spider mite, ovicide method on cotton leaf discs; settings: Tetranychus urticae, foliar, 144 h, hatched larvae after 6 days, read-out: SM: activity against two-spotted spider mite (% Control rating)
Protocol: Insecticidal Test for Two-Spotted Spider Mite (Tetranychus urticae) Ovicide Method: Ten adult female two-spotted spider mites were placed on eight 2.2 cm leaf discs of cotton leaf, allowed to oviposit over 24 hours, and thereafter removed. […] Discs were placed on an agar substrate and held at 24° C. and 90% RH for 6 days.

[4] = system: beet armyworm (Spodoptera exigua); assay: Insecticidal test for beet armyworm, treated lepidopteran diet; settings: Spodoptera exigua, 120 h, read-out: BAW: activity at 400 ppm against beet armyworm (% Control rating)
Protocol: (§1) Insecticidal Test for Tobacco Budworm (Heliothis virescens), Beet Armyworm (Spodoptera exigua), and Cabbage Looper (Trichoplusia ni).
(§2) To prepare the test solution, the test compound was formulated at 400 ppm in 7.5 mL of 2 acetone:1 tap water. 250 μL of the test solution was pipetted upon the surface of 8 mL of lepidopteran diet (modified Shorey) contained in each of five one-ounce plastic cups (one cup=1 replication). A second-instar beet armyworm was placed upon the treated diet in each cup once the solvent had air-dried. The solutions remaining after completing applications to the one-ounce cups were then used as leaf-dip solutions for 3.5 cm leaf discs cut from cabbage leaves and cotton cotyledons. Five discs of each type of plant were dipped until thoroughly coated into each rate of each compound (=5 replications of each treatment). After air-drying, the treated leaf discs were placed individually into one-ounce plastic cups. Each dried, treated cotton cotyledon disc was infested with a 2nd instar tobacco budworm larva, and each cabbage leaf disc was infested with a 2nd instar cabbage looper larva. Cups containing the treated substrates and larvae were capped and then held in a growth chamber at 25° C., 50-55% RH, and 14 hr light: 10 hr dark for 5 days.

[5] = system: cabbage looper (Trichoplusia ni); assay: Insecticidal test for cabbage looper, treated cabbage leaf disc; settings: Trichoplusia ni, foliar, 120 h, read-out: CL: activity at 400 ppm against cabbage looper (% Control rating)
Protocol: as §1, §2

[6] = 50 ppm spray, squash cotyledons, all life stages, 3 days
[7] = 400 ppm, treated diet surface, second-instar larvae, 5 days
[8] = 400 ppm, leaf-dip cabbage leaf disc, 2nd instar larvae, 5 days

SMILES | pest or weed control at 200 ppm [1] [%] | pest or weed control at 50 ppm [2, 6] [%] | pest or weed control [3] [%] | pest or weed control at 400 ppm [4, 7] [%] | pest or weed control at 400 ppm [5, 8] [%] | pest or weed control at 50 ppm [2] [%] | pest or weed control at 400 ppm [4] [%] | pest or weed control at 400 ppm [5] [%]
Clc1cncc(Cl)c1C1=NC(c2ccccc2)CO1 (stereo not drawn) [Compound 1] | < 50 | < 50 | – | – | – | – | – | –
Clc1ccc(C2COC(c3c(Cl)cncc3Cl)=N2)cc1 (stereo not drawn) [Compound 2] | < 50 | 90 to 100 | < 50 | – | – | – | – | –
Fc1ccc(C2COC(c3c(Cl)cncc3Cl)=N2)cc1 (stereo not drawn) [Compound 3] | 80 to 89 | 80 to 89 | – | – | – | – | – | –
Clc1cncc(Cl)c1C1=NC(c2ccc(Br)cc2)CO1 (stereo not drawn) [Compound 4, 2-(3,5-dichloro-4-pyridinyl)-4-(4-bromophenyl)oxazoline] | – | 90 to 100 | 90 to 100 | – | – | – | – | –
FC(F)(F)Oc1ccc(-c2ccc(C3COC(c4c(Cl)cncc4Cl)=N3)cc2)cc1 (stereo not drawn) [Compound 6] | < 50 | 90 to 100 | 90 to 100 | 90 to 100 | 90 to 100 | – | – | –
COc1ccc(-c2ccc(C3COC(c4c(Cl)cncc4Cl)=N3)cc2)cn1 (stereo not drawn) [Compound 7] | – | – | 90 to 100 | 60 to 69 | 80 to 89 | – | – | –
Cc1ccc(-c2ccc(C3COC(c4c(Cl)cncc4Cl)=N3)cc2)cc1C (stereo not drawn) [Compound 8] | – | – | – | – | – | 80 to 89 | 90 to 100 | 80 to 89
Cc1ccc(-c2ccc(C3COC(c4c(Cl)cncc4Cl)=N3)cc2)cc1 (stereo not drawn) [Compound 9] | – | – | – | – | – | 90 to 100 | 90 to 100 | –
Cc1ccc(-c2ccc(C3COC(c4c(Cl)cncc4Cl)=N3)cc2)s1 (stereo not drawn) [Compound 10] | – | – | – | – | – | 60 to 69 | 80 to 89 | 90 to 100
Clc1cncc(Cl)c1C1=NC(c2ccc(I)cc2)CO1 (stereo not drawn) [Compound 11, 2-(3,5-dichloro-4-pyridinyl)-4-(4-iodophenyl)oxazoline] | 90 to 100 | 90 to 100 | 90 to 100 | – | – | – | – | –
Clc1cncc(Cl)c1C1=NC(c2ccc(-c3ccc4c(c3)OCO4)cc2)CO1 (stereo not drawn) [Compound 13] | – | 80 to 89 | < 50 | 60 to 69 | 90 to 100 | – | – | –
Fc1ccc(-c2ccc(C3COC(c4c(Cl)cncc4Cl)=N3)cc2)cc1F (stereo not drawn) [Compound 14] | – | 60 to 69 | 90 to 100 | 80 to 89 | – | – | – | –
FC(F)(F)c1cccc(-c2ccc(C3COC(c4c(Cl)cncc4Cl)=N3)cc2)c1 (stereo not drawn) [Compound 15] | – | < 50 | < 50 | 90 to 100 | 90 to 100 | – | – | –
Clc1ccccc1-c1ccc(C2COC(c3c(Cl)cncc3Cl)=N2)cc1 (stereo not drawn) [Compound 18] | – | 50 to 59 | < 50 | – | 80 to 89 | – | – | –
Fc1cccc(-c2ccc(C3COC(c4c(Cl)cncc4Cl)=N3)cc2)c1 (stereo not drawn) [Compound 19] | < 50 | < 50 | 90 to 100 | – | 60 to 69 | – | – | –
Clc1cccc(-c2ccc(C3COC(c4c(Cl)cncc4Cl)=N3)cc2)c1 (stereo not drawn) [Compound 20] | – | – | – | – | – | < 50 | – | 90 to 100
